Source: PMC6491832, “Methylobacterium extorquens RSH Enzyme Synthesizes (p)ppGpp and pppApp in vitro and in vivo, and Leads to Discovery of pppApp Synthesis in Escherichia coli” (Frontiers in Microbiology, 2019)
Read-outs that look alike come from different tables or passages of the source.

Columns and labels:
RelSeq1-385 = biological target: T1, RelSeq1-385 (Streptococcus dysgalactiae, UniProt Q54089); format: biochemical; details: 8 mM ATP, 8 mM GTP, 16 mM MgCl2, 50 mM Tris-HCl pH 8.9, 37 °C, control reaction
T1 construct: gene relA; N-terminal catalytic half, residues 1-385; His8-SUMO tag removed by Ulp1; expressed in E. coli BL21(DE3) Rosetta
T1 sequence (Q54089 1-385): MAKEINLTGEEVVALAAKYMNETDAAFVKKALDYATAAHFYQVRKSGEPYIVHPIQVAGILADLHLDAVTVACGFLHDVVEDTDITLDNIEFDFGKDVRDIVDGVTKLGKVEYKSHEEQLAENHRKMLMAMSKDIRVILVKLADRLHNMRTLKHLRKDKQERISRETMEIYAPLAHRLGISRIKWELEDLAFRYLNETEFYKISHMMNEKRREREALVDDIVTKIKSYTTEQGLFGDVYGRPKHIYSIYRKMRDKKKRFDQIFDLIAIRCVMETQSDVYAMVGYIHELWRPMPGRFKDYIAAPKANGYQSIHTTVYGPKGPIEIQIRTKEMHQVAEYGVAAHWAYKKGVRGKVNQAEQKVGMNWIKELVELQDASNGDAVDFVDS

purified protein [1] = substrate: Nc1ncnc2c1ncn2[C@@H]1O[C@H](COP(=O)(O)OP(=O)(O)OP(=O)(O)O)[C@@H](O)[C@H]1O; assay: purified protein; format: biochemical, Methylorubrum extorquens; details: 8 mM GTP, ATP 0.25-2 mM, 8 mM CoCl2, 50 mM Tris-HCl pH 8.9, 37 °C, 2 h, 80 nM enzyme, pyrophosphate donor
purified protein [2] = substrate: Nc1nc2c(ncn2[C@@H]2O[C@H](COP(=O)(O)OP(=O)(O)OP(=O)(O)O)[C@@H](O)[C@H]2O)c(=O)[nH]1; assay: purified protein; format: biochemical, Methylorubrum extorquens; details: 8 mM ATP, GTP 1-8 mM, 8 mM CoCl2, 50 mM Tris-HCl pH 8.9, 37 °C, 2 h, 80 nM enzyme, pyrophosphate acceptor

Molecule: Nc1ncnc2c1ncn2[C@@H]1O[C@H](COP(=O)(O)OP(=O)(O)OP(=O)(O)O)[C@@H](O)[C@H]1O [ATP]
- pppGpp synthesis from [33P]gamma-ATP, two-dimensional TLC (RelSeq1-385; pyrophosphate donor): ATP + GTP with RelSeq1-385 (to visualize pppGpp)

Molecule: Nc1nc2c(ncn2[C@@H]2O[C@H](COP(=O)(O)OP(=O)(O)OP(=O)(O)O)[C@@H](O)[C@H]2O)c(=O)[nH]1 [GTP]
- pppGpp synthesis from [33P]gamma-ATP, two-dimensional TLC (RelSeq1-385; pyrophosphate acceptor): ATP + GTP with RelSeq1-385 (to visualize pppGpp)

B1: RSHMex1-352 (Methylorubrum extorquens AM1) (protein)
chain: MMRQYELVERVKRYNPAANEALLNRAYVYAMRAHGTQKRASGDPFFAHPLEVAAILTDLRLDDATIVAAVLHDTVEDTAATLDEIREIFGPEIGALVDGLTKLKRLDLVSKRAVQGENFRKLLLAVAEDVRVLLVKLADRLHNMRTLHFMRDDKRARIAEETLDIYAPLAGRMGMQELRDELEDLSFRTLKPEVYATITKRLEDLSAKSGSVIESIEHDLTARLAARGIAAHVKGRLKKPFSIWSKMERKSVAFEQLSDIVGFRVIVGTLAECYAALGVVHTSWPMVPGRYKDYVSTPKQNDYRSIHTTVIGPKRQRVELQIRTAEMDEIAEYGIAAHAHYKEAGKEGVEGE
notes: N-terminal catalytic half (hydrolase + synthetase domains, residues 1-352), CTD regulatory domain omitted; His8-SUMO tag removed by Ulp1; expressed in E. coli BL21(DE3) Rosetta
- Km (purified protein [1]): 390 ± 10 µM
- Km (purified protein [2]): 3000 ± 290 µM
